Assay results as given in US7786141B2 (Vertex Pharmaceuticals Incorporated, priority 2004, dated 2010).

Legend:
[1] = target: T1, M4 muscarinic receptor (Homo sapiens, UniProt P08173); assay: Functional mobilization of intracellular calcium (FLIPR) in M4-CHO cells; assay type: cell-based; conditions: M4 receptor, calcium mobilization; for Emax: read-out: M4 Efficacy
T1 construct: expressed in transfected cells; host or cells: CHO (M4-CHO)
T1 sequence (P08173 1-479): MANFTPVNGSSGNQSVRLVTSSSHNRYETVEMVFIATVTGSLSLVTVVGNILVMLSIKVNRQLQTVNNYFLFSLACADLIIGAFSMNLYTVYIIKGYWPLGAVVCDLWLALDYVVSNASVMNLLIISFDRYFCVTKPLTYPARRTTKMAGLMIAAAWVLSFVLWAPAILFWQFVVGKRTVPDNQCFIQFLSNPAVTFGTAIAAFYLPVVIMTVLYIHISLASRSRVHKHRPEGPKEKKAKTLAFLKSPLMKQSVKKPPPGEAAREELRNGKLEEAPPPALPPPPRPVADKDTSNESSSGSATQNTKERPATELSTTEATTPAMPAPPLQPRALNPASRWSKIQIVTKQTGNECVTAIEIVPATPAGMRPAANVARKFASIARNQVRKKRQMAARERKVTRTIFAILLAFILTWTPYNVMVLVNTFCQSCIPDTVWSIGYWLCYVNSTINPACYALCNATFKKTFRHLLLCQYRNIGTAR
How it was run: (§1)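 Measured via Fluo-3 fluorescence on a FLIPR, CHO cells with either muscarinic subtype received compound in 0.5% DMSO. Antagonism was assessed after 15 min pre-incubation followed by carbachol at each subtype's EC80; agonism from compound addition alone.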

[2] = target: T2, M1 muscarinic receptor (Homo sapiens, UniProt P11229); assay: Functional mobilization of intracellular calcium (FLIPR) in M1-CHO cells; assay type: cell-based; conditions: M1 receptor, calcium mobilization; for Emax: read-out: M1 Efficacy
T2 construct: expressed in transfected cells; host or cells: CHO (M1-CHO)
T2 sequence (P11229 1-460): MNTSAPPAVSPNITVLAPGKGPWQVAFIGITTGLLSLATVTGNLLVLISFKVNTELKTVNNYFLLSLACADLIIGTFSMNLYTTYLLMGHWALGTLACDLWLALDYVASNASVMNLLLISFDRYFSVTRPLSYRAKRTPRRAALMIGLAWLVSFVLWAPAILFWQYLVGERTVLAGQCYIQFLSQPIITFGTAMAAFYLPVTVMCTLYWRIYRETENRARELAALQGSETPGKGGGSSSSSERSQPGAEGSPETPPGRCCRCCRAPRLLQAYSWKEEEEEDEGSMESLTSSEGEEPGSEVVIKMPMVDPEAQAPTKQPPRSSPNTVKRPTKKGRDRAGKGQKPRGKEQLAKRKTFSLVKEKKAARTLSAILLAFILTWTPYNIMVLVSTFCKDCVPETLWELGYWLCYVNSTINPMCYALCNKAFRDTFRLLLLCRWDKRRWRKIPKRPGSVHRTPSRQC
How it was run: as §1

Row | Compound | M4 Activity [1] | Emax [1] [%] | M1 Activity [2] | Emax [2] [%]
1 | C#CCCOC(=O)N1CCC(N2CCC3(CC2)CN(C(=O)N(C)C)c2ccc(F)cc23)CC1 [compound 127] | xx (activity was measured to be between 0.1 μM and 1.0 μM) | < 65 | xxx (activity was measured to be less than 0.1 μM) | 65 to 85
2 | CCOC(=O)N1CCC(N2CCC3(CC2)CN(C(C)=O)c2ccc(-c4ccoc4)cc23)CC1 [compound 128] | xx (activity was measured to be between 0.1 μM and 1.0 μM) | < 65 | xxx (activity was measured to be less than 0.1 μM) | < 65
3 | COC(=O)N1CCC(CN2CCC3(CC2)CN(C(C)=O)c2ccc(F)cc23)CC1 [compound 129] | x (activity was measured to be greater than 1.0 μM) | < 65 | xxx (activity was measured to be less than 0.1 μM) | 65 to 85
4 | CN(C)C(=O)N1CC2(CCN(C3CC4CCC(C3)N4C(=O)O[C@H]3CCOC3)CC2)c2cc(F)ccc21 (some centres unmarked) [compound 130] | xx (activity was measured to be between 0.1 μM and 1.0 μM) | < 65 | xxx (activity was measured to be less than 0.1 μM) | < 65
5 | CCCC1CCC(N2CCC3(CC2)CN(C(C)=O)c2ccc(F)cc23)CC1 (centres unmarked) [compound 131] | xx (activity was measured to be between 0.1 μM and 1.0 μM) | > 85 | xxx (activity was measured to be less than 0.1 μM) | 65 to 85
6 | COC(=O)N1CCCC(N2CCC3(CC2)CN(C(C)=O)c2ccc(F)cc23)CC1 (centres unmarked) [compound 132] | xxx (activity was measured to be less than 0.1 μM) | > 85 | xxx (activity was measured to be less than 0.1 μM) | > 85
7 | O=C(OC1CCCC1)N1C2CCC1CC(N1CCC3(CC1)COc1ccc(F)cc13)C2 (centres unmarked) [compound 133] | xx (activity was measured to be between 0.1 μM and 1.0 μM) | 65 to 85 | xxx (activity was measured to be less than 0.1 μM) | > 85
8 | O=C(C1CCC1)N1C2CCC1CC(N1CCC3(CC1)COc1ccc(F)cc13)C2 (centres unmarked) [compound 134] | xx (activity was measured to be between 0.1 μM and 1.0 μM) | < 65 | xxx (activity was measured to be less than 0.1 μM) | > 85
9 | CC(=O)N1CC2(CCN(CC3CCOC3)CC2)c2cc(F)ccc21 (centres unmarked) [compound 135] | xx (activity was measured to be between 0.1 μM and 1.0 μM) | > 85 | xxx (activity was measured to be less than 0.1 μM) | > 85
10 | CCOC(=O)N1CCC(N2CCC3(CC2)CN(C(=O)C2CC2)c2ccc(F)cc23)CC1 [compound 136] | xxx (activity was measured to be less than 0.1 μM) | > 85 | xxx (activity was measured to be less than 0.1 μM) | > 85
11 | CCOC(=O)N1CCC(N2CCC3(CC2)CN(C(C)=O)c2ccc(CC)cc23)CC1 [compound 137] | x (activity was measured to be greater than 1.0 μM) | > 85 | xxx (activity was measured to be less than 0.1 μM) | > 85
12 | CC(=O)N1CC2(CCN(C3CC4CCC3C4)CC2)c2cc(C)ccc21 (centres unmarked) [compound 138] | x (activity was measured to be greater than 1.0 μM) | 65 to 85 | xxx (activity was measured to be less than 0.1 μM) | 65 to 85
13 | CC(C)OC(=O)N1C2CCC1CC(N1CCC3(CC1)C(=O)Nc1ccccc13)C2 (centres unmarked) [compound 139] | xxx (activity was measured to be less than 0.1 μM) | > 85 | xxx (activity was measured to be less than 0.1 μM) | > 85
14 | CC(=O)N1CC2(CCN(C3CCN(C(=O)OC4CCC4)CC3)CC2)c2cc(F)ccc21 [compound 140] | xxx (activity was measured to be less than 0.1 μM) | > 85 | xxx (activity was measured to be less than 0.1 μM) | > 85
15 | CCOC(=O)N1CCC(N2CCC3(CC2)CN(C(C)=O)c2ccc(Cl)cc23)CC1 [compound 141] | xx (activity was measured to be between 0.1 μM and 1.0 μM) | > 85 | xxx (activity was measured to be less than 0.1 μM) | > 85
16 | CCOC(=O)N1CCC(N2CCC3(CC2)CN(C(=O)C(C)C)c2ccc(F)cc23)CC1 [compound 142] | x (activity was measured to be greater than 1.0 μM) | > 85 | xxx (activity was measured to be less than 0.1 μM) | 65 to 85
17 | CCOC(=O)N1CCC(N2CCC3(CC2)CN(C(=O)c2cccnc2)c2ccc(F)cc23)CC1 [compound 144] | xxx (activity was measured to be less than 0.1 μM) | > 85 | xxx (activity was measured to be less than 0.1 μM) | > 85
18 | CCOC(=O)N1CCC(N2CCC3(CC2)CN(C(=O)OC(C)C)c2ccc(F)cc23)CC1 [compound 145] | x (activity was measured to be greater than 1.0 μM) | > 85 | xxx (activity was measured to be less than 0.1 μM) | > 85
19 | CCOC(=O)N1CCC(N2CCC3(CC2)CN(C(C)=O)c2ccc(-c4ccccc4F)cc23)CC1 [compound 146] | xxx (activity was measured to be less than 0.1 μM) | > 85 | xxx (activity was measured to be less than 0.1 μM) | > 85
20 | Clc1ccc2c(c1)C1(CCN(CC3CC4C=CC3C4)CC1)CN2 (centres unmarked) [compound 147] | xx (activity was measured to be between 0.1 μM and 1.0 μM) | > 85 | xxx (activity was measured to be less than 0.1 μM) | 65 to 85
21 | CCOC(=O)N1C2CCC1CC(N1CCC3(CC1)C(=O)N(C)c1ccccc13)C2 (centres unmarked) [compound 149] | x (activity was measured to be greater than 1.0 μM) | > 85 | xxx (activity was measured to be less than 0.1 μM) | > 85
22 | CCOC(=O)N1CCC(N2CCC3(CC2)CN(C(C)=O)c2ccc(-c4ccccc4OC)cc23)CC1 [compound 150] | x (activity was measured to be greater than 1.0 μM) | > 85 | xxx (activity was measured to be less than 0.1 μM) | 65 to 85
23 | CC(=O)N1CC2(CCN(C3CCN(C(=O)OC4CCC4)CC3)CC2)c2cc(C)ccc21 [compound 151] | xxx (activity was measured to be less than 0.1 μM) | > 85 | xxx (activity was measured to be less than 0.1 μM) | > 85
24 | Fc1ccc2c(c1)C1(CCN(C3CCCCC3)CC1)CO2 [compound 152] | x (activity was measured to be greater than 1.0 μM) | > 85 | xx (activity was measured to be between 0.1 μM and 1.0 μM) | 65 to 85
25 | CCOC(=O)N1C2CCC1CC(N1CCC3(CC1)CNc1ccccc13)C2 (centres unmarked) [compound 153] | xxx (activity was measured to be less than 0.1 μM) | > 85 | xxx (activity was measured to be less than 0.1 μM) | > 85
26 | COC(=O)N1CCC(N2CCC3(CC2)CN(C(=O)N(C)C)c2ccc(F)cc23)CC1 [compound 154] | xxx (activity was measured to be less than 0.1 μM) | > 85 | xxx (activity was measured to be less than 0.1 μM) | 65 to 85
27 | Clc1ccc2c(c1)C1(CCN(C3CCCCC3)CC1)CN2 [compound 155] | x (activity was measured to be greater than 1.0 μM) | > 85 | xxx (activity was measured to be less than 0.1 μM) | > 85
28 | COC(=O)N1C2CCC1CC(N1CCC3(CC1)COc1ccc(F)cc13)C2 (centres unmarked) [compound 156] | xxx (activity was measured to be less than 0.1 μM) | > 85 | xxx (activity was measured to be less than 0.1 μM) | 65 to 85
29 | Clc1ccc2c(c1)C1(CCN(CC3CCCCC3)CC1)CN2 [compound 157] | x (activity was measured to be greater than 1.0 μM) | > 85 | xxx (activity was measured to be less than 0.1 μM) | 65 to 85
